Results on 15 compounds are retold here after patent US7041785B1, “B1-bradykinin receptor antagonists and use thereof” (Université de Sherbrooke, priority 1996, dated 2006).

Assay in all cases: cell-based
Experiment [1] deals with T1, B2 receptor (Cavia porcellus, UniProt O70526).
T1 sequence (O70526 1-372): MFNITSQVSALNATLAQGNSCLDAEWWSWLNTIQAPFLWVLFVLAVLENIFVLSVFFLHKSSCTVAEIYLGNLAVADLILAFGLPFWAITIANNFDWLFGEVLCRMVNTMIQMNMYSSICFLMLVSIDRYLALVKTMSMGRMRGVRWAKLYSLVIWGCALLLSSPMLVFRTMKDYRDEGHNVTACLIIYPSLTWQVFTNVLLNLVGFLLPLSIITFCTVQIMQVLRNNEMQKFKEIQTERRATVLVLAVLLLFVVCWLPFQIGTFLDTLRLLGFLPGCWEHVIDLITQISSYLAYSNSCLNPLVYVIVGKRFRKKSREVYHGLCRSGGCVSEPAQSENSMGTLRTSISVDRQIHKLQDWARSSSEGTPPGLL
Conditions: for G.P.I. pA2: vs BK, Inactive = no detectable antagonistic effect at ≦ 10 μg/ml, F.ag. full agonist, P.ag. partial agonist; for G.P.I. α^E: residual agonistic activity at 10 μg/mL in comparison with BK. In short, it runs like this: (§1)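 Isolated rabbit jugular vein (captopril 1 μmol/L), guinea pig ileum, endothelium-free rabbit aorta and human umbilical vein, in Krebs at 37 °C, with isometric tension recorded. Agonism was tested at 10 μg/mL.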

Experiment [2] addresses T2, B1 receptor (Oryctolagus cuniculus, UniProt P48748).
T2 sequence (P48748 1-352): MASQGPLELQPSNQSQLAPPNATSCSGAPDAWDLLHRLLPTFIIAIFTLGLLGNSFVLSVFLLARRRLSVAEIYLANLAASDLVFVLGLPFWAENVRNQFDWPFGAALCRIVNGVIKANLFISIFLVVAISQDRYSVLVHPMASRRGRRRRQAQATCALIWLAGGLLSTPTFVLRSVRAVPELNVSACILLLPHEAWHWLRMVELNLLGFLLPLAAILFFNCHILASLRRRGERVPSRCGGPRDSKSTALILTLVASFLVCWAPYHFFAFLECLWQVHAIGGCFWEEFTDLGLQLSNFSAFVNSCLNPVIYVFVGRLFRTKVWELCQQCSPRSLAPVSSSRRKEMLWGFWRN
Conditions: for Kb: Rb.A. pA2, apparent affinity as antagonist vs desArg9BK; for Rb.A. α^E: residual agonistic activity at 10 μg/mL in comparison with desArg9BK. In short, it runs like this:
as §1

Experiment [3] has as its target T3, B2 receptor (Oryctolagus cuniculus, UniProt Q28642).
T3 sequence (Q28642 1-367): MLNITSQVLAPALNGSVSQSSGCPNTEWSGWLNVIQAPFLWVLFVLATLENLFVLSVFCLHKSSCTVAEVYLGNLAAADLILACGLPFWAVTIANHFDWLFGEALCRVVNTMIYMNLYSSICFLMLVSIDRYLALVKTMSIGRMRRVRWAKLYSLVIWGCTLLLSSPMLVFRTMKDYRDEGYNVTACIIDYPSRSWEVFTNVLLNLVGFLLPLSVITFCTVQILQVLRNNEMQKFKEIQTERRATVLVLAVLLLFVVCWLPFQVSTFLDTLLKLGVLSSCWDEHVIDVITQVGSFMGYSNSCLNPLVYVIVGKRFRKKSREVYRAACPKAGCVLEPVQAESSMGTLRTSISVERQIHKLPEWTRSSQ
Conditions: for Rb.J.V. α^E: residual agonistic activity at 10 μg/mL in comparison with BK. In short, it runs like this:
as §1

The mark [4] stands for this setting: antagonist applied 10 min before, Inactive = no detectable antagonistic effect at ≦ 10 μg/ml.

Non-standard residues stand in square brackets, D forms with d. Residues, ends and D or L forms follow the SMILES beside them. 2Nal = N[C@@H](Cc1ccc2ccccc2c1)C(=O)O; d2Nal = N[C@H](Cc1ccc2ccccc2c1)C(=O)O; Hyp = O=C(O)[C@@H]1C[C@@H](O)CN1; Tic = O=C(O)[C@@H]1Cc2ccccc2CN1; dTic = O=C(O)[C@H]1Cc2ccccc2CN1; Sar = CNCC(=O)O

In the case of `CC(C)C[C@H](NC(=O)[C@H]1Cc2ccccc2CN1C(=O)[C@H](CO)NC(=O)[C@H](Cc1ccccc1)NC(=O)CNC(=O)[C@@H]1CCCN1C(=O)[C@@H]1CCCN1C(=O)[C@@H](N)CCCNC(=N)N)C(=O)O` [Compound 8, (D-Tic^7, Leu^8)desArg^9BK] (H-RPPGFS[dTic]L-OH; N-terminus and C-terminus assumed), in experiment [1], the “G.P.I. pA2” value is “Inactive”. In addition, the Kb in experiment [2] (setting [4]) is 1380 nM.
For `CNCC(=O)N[C@@H](CCCNC(=N)N)C(=O)N1CCC[C@H]1C(=O)N1CCC[C@H]1C(=O)NCC(=O)N[C@@H](Cc1ccccc1)C(=O)N[C@@H](CO)C(=O)N1Cc2ccccc2C[C@@H]1C(=O)N[C@@H](CC(C)C)C(=O)O` [Compound 9, Sar(D-Tic^7, Leu^8)desArg^9BK] (H-[Sar]RPPGFS[dTic]L-OH; N-terminus and C-terminus assumed), the “G.P.I. pA2” value in experiment [1] is reported as “Inactive”. The Kb in experiment [2] (setting [4]) is 692 nM.
With `CC(C)C[C@H](NC(=O)[C@H]1Cc2ccccc2CN1C(=O)[C@H](CO)NC(=O)[C@H](Cc1ccccc1)NC(=O)CNC(=O)[C@@H]1CCCN1C(=O)[C@@H]1CCCN1C(=O)[C@H](CCCNC(=N)N)NC(=O)[C@H](N)CCCNC(=N)N)C(=O)O` [Compound 12, D-Arg(D-Tic^7, Leu^8)desArg^9BK] (H-[dR]RPPGFS[dTic]L-OH; N-terminus and C-terminus assumed), the Kb was 4470 nM in experiment [3] and 200 nM in experiment [2] (setting [4]). Also, in experiment [1], the “G.P.I. pA2” value is given as “Inactive”.
Take `CC[C@H](C)[C@H](NC(=O)[C@H]1Cc2ccccc2CN1C(=O)[C@H](CO)NC(=O)[C@H](Cc1ccccc1)NC(=O)CNC(=O)[C@@H]1CCCN1C(=O)[C@@H]1CCCN1C(=O)[C@H](CCCNC(=N)N)NC(=O)[C@H](N)CCCNC(=N)N)C(=O)O` [Compound 13, D-Arg(D-Tic^7, Ile^8)desArg^9BK] (H-[dR]RPPGFS[dTic]I-OH; N-terminus and C-terminus assumed): the Kb was 4570 nM in experiment [3] and 107 nM in experiment [2] (setting [4]). Besides, in experiment [1], the “G.P.I. pA2” value was “Inactive”. The “Rb.A. pA2” value in experiment [2] (apparent affinity as antagonist vs desArg9BK, antagonist applied 10 min before, Inactive = no detectable antagonistic effect at ≦ 10 μg/ml) is reported as 6.97.
As to `CC[C@H](C)[C@H](NC(=O)[C@@H]1Cc2ccccc2CN1C(=O)[C@H](CO)NC(=O)[C@H](Cc1ccccc1)NC(=O)CNC(=O)[C@@H]1CCCN1C(=O)[C@@H]1CCCN1C(=O)[C@H](CCCNC(=N)N)NC(=O)[C@H](N)CCCNC(=N)N)C(=O)O` [Compound 14, D-Arg(L-Tic^7, Ile^8)desArg^9BK] (H-[dR]RPPGFS[Tic]I-OH; N-terminus and C-terminus assumed), the Kb is 6460 nM in experiment [3] and greater than 9120 nM in experiment [2] (setting [4]). The “G.P.I. pA2” value in experiment [1] is reported as “Inactive”.
Regarding `CC(C)C[C@H](NC(=O)[C@H]1Cc2ccccc2CN1C(=O)[C@H](CO)NC(=O)[C@H](Cc1ccccc1)NC(=O)CNC(=O)[C@@H]1C[C@@H](O)CN1C(=O)[C@@H]1CCCN1C(=O)[C@H](CCCNC(=N)N)NC(=O)[C@H](N)CCCNC(=N)N)C(=O)O` [Compound 17, D-Arg(Hyp^3, D-Tic^7, Leu^8)desArg^9BK] (H-[dR]RP[Hyp]GFS[dTic]L-OH; N-terminus and C-terminus assumed), the Kb is greater than 9120 nM in experiment [3] and 229 nM in experiment [2] (setting [4]). Also, the “G.P.I. pA2” value in experiment [1] was “Inactive”.
In the case of `CC(=O)N[C@@H](CCCCN)C(=O)N[C@@H](CCCNC(=N)N)C(=O)N1CCC[C@H]1C(=O)N1CCC[C@H]1C(=O)NCC(=O)N[C@@H](Cc1ccccc1)C(=O)N[C@@H](CO)C(=O)N[C@H](Cc1ccc2ccccc2c1)C(=O)N[C@@H](CC(C)C)C(=O)O` [Compound 18, AcLys(D-βNal^7, Leu^8)desArg^9BK] (Ac-KRPPGFS[d2Nal]L-OH; C-terminus assumed), in experiment [3], the Kb is greater than 8710 nM and the “Rb.J.V. α^E” value is reported as 0. Further, in experiment [1], the “G.P.I. α^E” value is 0 and the “G.P.I. pA2” value is listed as “Inactive”. Moreover, in experiment [2] (setting [4]), the Kb is 12.3 nM. Besides, the “Rb.A. α^E” value in experiment [2] is on record as 0.
For the compound `CC[C@H](C)[C@H](NC(=O)[C@@H](Cc1ccc2ccccc2c1)NC(=O)[C@H](CO)NC(=O)[C@H](Cc1ccccc1)NC(=O)CNC(=O)[C@@H]1CCCN1C(=O)[C@@H]1CCCN1C(=O)[C@H](CCCN=C(N)N)NC(=O)[C@H](CCCCN)NC(C)=O)C(=O)O` [Compound 19, AcLys(D-βNal^7, Ile^8)desArg^9BK] (Ac-KRPPGFS[d2Nal]I-OH), the Kb in experiment [2] (setting [4]) is 3.98 nM.
Take `CC[C@H](C)[C@H](NC(=O)[C@H](Cc1ccc2ccccc2c1)NC(=O)[C@H](CO)NC(=O)[C@H](Cc1ccccc1)NC(=O)CNC(=O)[C@@H]1CCCN1C(=O)[C@@H]1CCCN1C(=O)[C@H](CCCNC(=N)N)NC(=O)[C@H](CCCCN)NC(C)=O)C(=O)O` [Compound 20, AcLys(L-βNal^7, Ile^8)desArg^9BK] (Ac-KRPPGFS[2Nal]I-OH; C-terminus assumed): in experiment [3], the Kb is 7760 nM and the “Rb.J.V. α^E” value was 0. Moreover, in experiment [1], the “G.P.I. α^E” value turned out to be 0.06 and the “G.P.I. pA2” value was “Inactive”. In experiment [2] (setting [4]), the Kb was 5010 nM. For the same compound, the “Rb.A. α^E” value in experiment [2] came to 0.
With `CC[C@H](C)[C@H](NC(=O)[C@@H](Cc1ccc2ccccc2c1)NC(=O)[C@H](CO)NC(=O)[C@H](Cc1ccccc1)NC(=O)CNC(=O)[C@@H]1CCCN1C(=O)[C@@H]1CCCN1C(=O)[C@H](CCCNC(=N)N)NC(=O)[C@H](N)CCCNC(=N)N)C(=O)O` [Compound 23, D-Arg(D-βNal^7, Ile^8)desArg^9BK] (H-[dR]RPPGFS[d2Nal]I-OH; N-terminus and C-terminus assumed), the results for the Kb in experiment [3] and in experiment [2] (setting [4]) were 427 nM and 19.1 nM, respectively.
In the case of `CC(C)C[C@H](NC(=O)[C@@H](Cc1ccc2ccccc2c1)NC(=O)[C@H](CO)NC(=O)[C@H](Cc1ccccc1)NC(=O)CNC(=O)[C@@H]1CCCN1C(=O)[C@@H]1CCCN1C(=O)[C@H](CCCNC(=N)N)NC(=O)[C@H](N)CCCNC(=N)N)C(=O)O` [Compound 24, D-Arg(D-βNal^7, Leu^8)desArg^9BK] (H-[dR]RPPGFS[d2Nal]L-OH; N-terminus and C-terminus assumed), the Kb in experiment [3] was 3630 nM; in experiment [2] (setting [4]), 50.1 nM. For the same compound, the “G.P.I. pA2” value in experiment [1] is on record as “Inactive”.
Take `CC[C@H](C)[C@H](NC(=O)[C@@H](Cc1ccc2ccccc2c1)NC(=O)[C@H](CO)NC(=O)[C@H](Cc1ccccc1)NC(=O)CNC(=O)[C@@H]1CCCN1C(=O)[C@@H]1CCCN1C(=O)[C@H](CCCNC(=N)N)NC(=O)[C@H](N)CCCCN)C(=O)O` [Compound 25, D-Lys(D-βNal^7, Ile^8)desArg^9BK] (H-[dK]RPPGFS[d2Nal]I-OH; N-terminus and C-terminus assumed): the values for the Kb in experiment [3] and in experiment [2] (setting [4]) were 3720 nM and 19.5 nM, respectively.
The matching figures for `CC[C@H](C)[C@H](NC(=O)[C@@H](Cc1ccc2ccccc2c1)NC(=O)[C@H](CO)NC(=O)[C@H](Cc1ccccc1)NC(=O)CNC(=O)[C@@H]1CCCN1C(=O)[C@@H]1CCCN1C(=O)[C@H](CCCNC(=N)N)NC(=O)CNC)C(=O)O` [Compound 26, Sar(D-βNal^7, Ile^8)desArg^9BK] (H-[Sar]RPPGFS[d2Nal]I-OH; N-terminus and C-terminus assumed): 9120 nM and 38 nM.
Consider `CC(=O)N[C@@H](Cc1ccc(O)cc1)C(=O)NCCCCCC(=O)N[C@@H](CCCCN)C(=O)N[C@@H](CCCNC(=N)N)C(=O)N1CCC[C@H]1C(=O)N1CCC[C@H]1C(=O)NCC(=O)N[C@@H](Cc1ccccc1)C(=O)N[C@@H](CO)C(=O)N1CCC[C@H]1C(=O)N[C@@H](CC(C)C)C(=O)O` [Compound 27, AcTyrεAhxLys(Leu^8)desArg^9BK], for which the “Rb.J.V. α^E” value in experiment [3] amounted to 0.03. Besides, in experiment [1], the “G.P.I. α^E” value is on record as 0.30 and the “G.P.I. pA2” value is “P.ag”. The Kb in experiment [2] (setting [4]) was 7.94 nM. For the same compound, the “Rb.A. α^E” value in experiment [2] was determined as 0.
With `CNCC(=O)N[C@@H](Cc1ccc(O)cc1)C(=O)NCCCCCC(=O)N[C@@H](CCCCN)C(=O)N[C@@H](CCCNC(=N)N)C(=O)N1CCC[C@H]1C(=O)N1CCC[C@H]1C(=O)NCC(=O)N[C@@H](Cc1ccccc1)C(=O)N[C@@H](CO)C(=O)N1CCC[C@H]1C(=O)N[C@@H](CC(C)C)C(=O)O` [Compound 28, SarTyrεAhxLys(Leu^8)desArg^9BK], the “G.P.I. pA2” value in experiment [1] was “Inactive”. Further, the Kb in experiment [2] (setting [4]) was 6.76 nM.
